Patent US20210277352A1, “ENRICHMENT SUPPLEMENT FOR ANTIMICROBAL MATRICES” (priority 2018, published 2021)
Where two headings read alike, the source gives them in different places.

Columns and labels:
[1] = system: Listeria innocua (ATCC 33090); format: cell-based
[2] = system: Listeria innocua (ATCC 33090); settings: 25 g food matrix, 100 mL Demi Fraser media, inoculation 1.4 cfu/sample, 35° C. 24 hours, mean of two replicates
Protocol: (§1) Individual inoculums were prepared by serially diluting each culture sample with Butterfield's Buffer (3M Company, St. Paul, Minn.). To determine the cell concentration (cfu/sample), a 1 mL aliquot of diluted sample was plated onto a […] Aerobic Count Plate (3M Company, St. Paul, Minn.), incubated, and counted according to the manufacturer's instructions. The counts (cfu) from the plates were used to calculate the final dilution required to achieve the targeted inoculum concentration.
(§2) The inoculated sample was added to a WHIRL-PAK sterile sampling bag that contained 100 mL of Demi Fraser enrichment media. […] The bag was closed and the sample was mixed for 30 seconds followed by incubation at 35° C. for 24 hours. A 10 mL aliquot of the media was removed and serially diluted with fresh Demi Fraser media. A 100 microliter sample from the final dilution was plated onto a Modified Oxford (MOX) agar plate according to the manufacturer's instructions and the plate was incubated at 37° C. for 24 hours. Colonies (cfu) that formed were counted by visual inspection. The total colony count post enrichment was calculated by adjusting the observed plate count based on the number and volume of the dilutions.

[3] = system: Salmonella typhimurium (ATCC 14028); settings: 25 g food matrix, 100 mL BPW media, inoculation 10 cfu/sample, 35° C. 24 hours, mean of two replicates
Protocol: as §1
as §2, with “of Buffered Peptone Water” for “of Demi Fraser”, “with” for “with fresh”, “Fraser media (3M Company, St. Paul, Minn.).” for “Fraser media.”, “onto an EZ-CHROM Salmonella Plus” for “onto a Modified Oxford (MOX)”, “dilutions. The recovery of Salmonella typhimurium (cfu/mL) after enrichment is reported in Table 1 as the mean value of two replicates.” for “dilutions.”

[4] = salt in enrichment media 331 micromolar, 50 g food matrix, 200 mL Demi Fraser media, inoculation 3.7 cfu/sample, mean of two replicates
[5] = salt in enrichment media 330 micromolar, 50 g food matrix, 200 mL Demi Fraser media, inoculation 3.7 cfu/sample, mean of two replicates

[Ba+2].[Cl-].[Cl-] [BaCl2, barium chloride]
Recovery after Enrichment [1, 4]: 1 × 10^4 cfu/mL

[Ca+2].[Cl-].[Cl-] [CaCl2, calcium chloride]
Recovery after Enrichment [1]: 1 × 10^4 cfu/mL

O.O.O.O.O.O.O.O=S(=O)([O-])[O-].[Fe+2] [FeSO4, ferrous sulfate heptahydrate]
Recovery after Enrichment ([2]; FeSO4 50 mg/L): 1 × 10^5 cfu/mL
Recovery after Enrichment ([2]; FeSO4 500 mg/L): 1 × 10^3 cfu/mL
Recovery after Enrichment ([2]; FeSO4 2000 mg/L): 1 × 10^3 cfu/mL
Recovery after Enrichment ([3]; FeSO4 50 mg/L): 1 × 10^6 cfu/mL
Recovery after Enrichment ([3]; FeSO4 500 mg/L): 1 × 10^6 cfu/mL
Recovery after Enrichment ([3]; FeSO4 2000 mg/L): 1 × 10^7 cfu/mL

O=S(=O)([O-])[O-].[Mg+2] [MgSO4, magnesium sulfate]
Recovery after Enrichment ([1]; salt in enrichment media 332 micromolar, 50 g food matrix, 200 mL Demi Fraser media, inoculation 3.7 cfu/sample, mean of two replicates): 1 × 10^5 cfu/mL

[Cl-].[Cl-].[Zn+2] [ZnCl2, zinc chloride]
Recovery after Enrichment ([1]; ZnCl2 45 mg/L, 50 g food matrix, 200 mL Demi Fraser media, inoculation 3.7 cfu/sample, 35° C. 24 hours, mean of two replicates): 1 × 10^6 cfu/mL
Recovery after Enrichment [1, 5]: 1 × 10^6 cfu/mL

ferric ammonium citrate [Example C6H11FeNO7]
Recovery after Enrichment [1, 5]: 1 × 10^4 cfu/mL

ferric citrate [Example C6H5FeO7]
Recovery after Enrichment [1, 4]: 1 × 10^4 cfu/mL
